# Where a name gives a salt, the structure may show the parent alone.
# Tested on: guinea-pig teania coli
# Assay: Pharmacological test I: calcium-antagonistic activity, inhibition of Ca++-induced contraction of isolated guinea-pig teania coli
# Details: Cavia porcellus, 5 min, Ca++-free-high-K Krebs, 5 min exposure before CaCl2 (3×10^-4 M), 32° C., read-out: Calcium-antagonistic activity IC50 (concentration eliciting 50% inhibition of Ca++-induced contraction)
# Description: The action potentials on the smooth muscles of uterus, teania coli and portal vein are dependent on calcium ion, and therefore these smooth muscle preparations are useful for screening of calcium antagonists. We measured the calcium-antagonistic activity of the compounds by the method using guinea-pig teania coli preparation.
# Isolated guinea-pig teania coli was suspended in a organ bath filled with Krebs solution at 32° C. and bubbled with 5% carbon dioxide in oxygen. After equilibration, the muscle was washed with Ca^++ -free Krebs solution, and when the muscle had relaxed to the basal level, it was suspended in Ca^++ -free-high-K Krebs solution.
# The muscle was exposed to test compounds for 5 minutes before addition of CaCl2, and the contraction induced by CaCl2 (3×10^-4 M) was recorded isotonically. The calcium-antagonistic activity was represented by the concentration of test compound which elicited 50% inhibition of Ca^++ -induced contraction (IC50).
row,Structure (SMILES),IC50
1,"COc1ccc(OC)c(C2(CCCN(C)C3CCCCC3)Sc3ccccc3N(C)C2=O)c1 (centres unmarked) [compound 80, 3,4-Dihydro-2-(2,5-dimethoxyphenyl)-4-methyl-2-[3-(N-methylcyclohexylamino)propyl]-3-oxo-2H-1,4-benzothiazine oxalate]",710 nM
2,"COc1ccc(OC)c(C2(CCCN(C)CCc3cc(OC)c(OC)c(OC)c3)Sc3ccccc3N(C)C2=O)c1 (centres unmarked) [compound 83, 3,4-Dihydro-2-(2,5-dimethoxyphenyl)-4-methyl-2-[3-(N-methyl-3,4,5-trimethoxyphenethylamino)propyl[-3-oxo-2H-1,4-benzothiazine oxalate]",860 nM
3,"COc1ccc(CCN(C)CCCCOc2ccc(C3(SC)Sc4ccccc4N(C)C3=O)cc2)cc1OC (centres unmarked) [compound 103, 3,4-Dihydro-4-methyl-2-[4-[4-(N-methyl-3,4-dimethoxyphenethylamino)butoxy]phenyl]-2-methylthiol-3-oxo-2H-1,4l-benzothiazine hydrochloride]",530 nM
4,"COc1ccc(OCCCN(C)CCc2ccc(OC)c(OC)c2)c(C2(SC)Sc3ccccc3N(C)C2=O)c1 (centres unmarked) [compound 131, 3,4-Dihydro-2-[5-methoxy-2-[3-(N-methyl-3,4-dimethoxyphenethylamino)propoxy]phenyl]-4-methyl-2-methylthio-3-oxo-2H-1,4-benzothiazine hydrochloride]",630 nM
5,"COc1ccc(OCCCCN(C)CCc2cc(OC)c(OC)c(OC)c2)c(C2(SC)Sc3ccccc3N(C)C2=O)c1 (centres unmarked) [compound 142, 3,4-Dihydro-2-[5-methoxy-2-[4-(N-methyl-3,4,5-trimethoxyphenethylamino)butoxy]phenyl]-4-methyl-2-methylthio-3-oxo-2H-1,4-benzothiazine hydrochloride]",630 nM
6,"COc1ccc(OCCCN(C)CCOc2ccc3c(c2)OCO3)c(C2(OC)Sc3ccccc3N(C)C2=O)c1 (centres unmarked) [compound 147, 3,4-Dihydro-2-methoxy-2-[5-methoxy-2-[3-[N-methyl-2-(3,4-methylenedioxyphenoxy)ethylamino]propoxy]phenyl]-4-methyl-3-oxo-2H-1,4-benzothiazine hydrochloride]",420 nM
7,"COc1ccc(OCCCCN(C)CCOc2ccc3c(c2)OCO3)c(C2(OC)Sc3ccccc3N(C)C2=O)c1 (centres unmarked) [compound 148, 3,4-Dihydro-2-methoxy-2-[5-methoxy-2-[4-[N-methyl-2-(3,4-methylenedioxyphenoxy)ethylamino]butoxy]phenyl]-4-methyl-3-oxo-2H-1,4-benzothiazine hydrochloride]",380 nM
8,"COc1ccc(OCCCCN(C)CCOc2ccc3c(c2)OCO3)c(C2(SC)Sc3ccccc3N(C)C2=O)c1 (centres unmarked) [compound 150, 3,4-Dihydro-2-[5-methoxy-2-[4-[N-methyl-2-(3,4-methylenedioxyphenoxy)ethylamino]butoxy]phenyl]-4-methyl-2-methylthio-3-oxo-2H-1,4-benzothiazine hydrochloride hemihydrate]",890 nM

# Source: US4739050A, “2-phenyl-1,4-benzothiazin-3-one derivatives” (Santen Pharmaceutical Co., Ltd., priority 1985, dated 1988)
